Literature values, collected in US20240130937A1, “ORAL CARE COMPOSITION” (LACER, S.A., priority 2019, published 2024).

Details: at 25° C.

[Cl-].[Cl-].[Zn+2] [zinc chloride]
solubility in water: 4320 mg/mL
